Results on two compounds are retold here after publication PMC8569681, “New Pyrimidine and Pyridine Derivatives as Multitarget Cholinesterase Inhibitors: Design, Synthesis, and In Vitro and In Cellulo Evaluation” (ACS Chemical Neuroscience, 2021).

Where two headings read alike, the source gives them in different places.

One test addresses T1, Aβ42 peptide (Homo sapiens, UniProt P05067).
T1 construct: expressed in transfected cells; host or cells: E. coli BL21 (DE3), pET28a
Kind of test: Inhibition of Aβ42 aggregation in intact E. coli cells, thioflavin-S. To be noted: [I] = 100 μM. It counts as cell-based, Escherichia coli. As for the experimental part: The anti-aggregating effect of the tested compounds was monitored by a cell-based assay in intact Escherichia coli cells that overexpress either the Aβ42 peptide or tau protein, which upon overexpression form insoluble inclusion bodies that were stained with thioflavin-S, an amyloid specific dye.[36] The percentages of inhibition toward Aβ42 and tau aggregation were determined at an inhibitor concentration of 100 μM, and the obtained results are reported in Table 7.
E. coli competent cells BL21 (DE3) were transformed with the pET28a vector (Novagen, Inc., Madison, WI, USA) carrying the DNA sequence of Aβ42. Because of the addition of the initiation codon ATG in front of both genes, the overexpressed peptide contains an additional methionine residue at its N terminus. For overnight culture preparation, an amount of 10 mL of the M9 minimal medium containing 50 μg·mL^–1 of kanamycin was inoculated with a colony of BL21 (DE3) bearing the plasmid to be expressed at 37 °C. For expression of the Aβ42 peptide, the required volume of overnight culture to obtain 1:500 dilution was added into the fresh M9 minimal medium containing 50 μg·mL^–1 of kanamycin and 250 μM Th-S. The bacterial culture was grown at 37 °C and 250 rpm. When the cell density reached OD600 = 0.6, an amount of 980 μL of culture was transferred into Eppendorf tubes of 1.5 mL with 10 μL of each compound to be tested in DMSO and 10 μL of isopropyl 1-thio-β-D-galactopyranoside (IPTG) at 100 mM. The final concentration of the drug was fixed at 100 μM. The samples were grown overnight at 37 °C and 1400 rpm using a ThermoMixer (Eppendorf, Hamburg, Germany). As negative control (maximal amyloid presence), the same amount of DMSO without the drug was added in the sample. In parallel, non-induced samples (in the absence of IPTG) were also prepared and used as positive controls (non-amyloid presence). In addition, these samples were used to assess the potential intrinsic toxicity of the compounds and to confirm the correct bacterial growth.
Th-S (T1892) and other chemical reagents were purchased from Sigma (St. Louis, MO). The Th-S stock solution ([…]) was prepared in double-distilled water purified through a Milli-Q system (Millipore, USA). Th-S fluorescence and absorbance were tracked using a DTX 800 plate reader Multimode Detector equipped with a Multimode Analysis Software (Beckman-Coulter, USA). Filters of 430/35 and 485/20 nm were used for the excitation and emission wavelengths, respectively. Filters of 535/25 nm were also used for the absorbance determination. To normalize the Th-S fluorescence as a function of the bacterial concentration, OD600 was obtained using a Shimadzu UV-2401 PC UV–vis spectrophotometer (Shimadzu, Japan). Note that the fluorescence normalization was carried out considering as 100% the Th-S fluorescence of the bacterial cells expressing the peptide or protein in the absence of drug and 0% the Th-S fluorescence of the bacterial cells not expressing the peptide or protein. A minimum of five independent assays (with three replicates for assay) was performed for each tested compound. More assays were performed to obtain a SEM < 5% with a maximum of 10 independent assays.

In another test the target is T2, equine BChE (eqBChE) (Equus caballus, UniProt P81908).
T2 construct: purchased Sigma-Aldrich (Milan, Italy)
Kind of test: Inhibition constant and mechanism vs eqBChE, Dixon's method. The conditions noted are these: for inhibition mechanism on eqBChE: Dixon's plot, best fitting model; for α, eqBChE: mixed inhibition, α > 1 free enzyme, α < 1 enzyme–substrate complex; for Ki: three substrate and five inhibitor concentrations, read-out: Ki ± SD, eqBChE. In kind it is biochemical. As for the experimental part:
(§1) . The recorded data were analyzed with the enzyme kinetic module of SigmaPlot to find the best fitting model of inhibition using the linear regression analysis. The reference kinetic models used in the regression analysis were competitive, noncompetitive, uncompetitive, and mixed. Each determination was repeated five times, and incorrect values were discarded to reduce the standard deviation within the limit of 5%. In this way, the regression lines obtained have a linear regression coefficient (R^2) higher than 0.95. Dixon’s plots of all tested compounds are reported in the Supporting Information (Figures S1–S12).
(§2) 18, 22, 25, 26, 28, and 30 toward eqBChE). For each compound, a 500 μM stock solution was prepared in H2O/DMSO or in 10^–2 M HCl and diluted in water to prepare solutions of opportune concentrations to introduce in the cuvette volumes ranging from 30 to 100 μL, to obtain the desired final concentrations. The maximum amount of DMSO used for the preparation of the stock solution was calculated to have a DMSO content in cuvette <0.033%.
(§3) Three milliliters of 0.1 M phosphate buffer (pH = 7.4) containing DTNB (0.25 mM) and EeAChE (0.083 UmL^–1) or eqBChE (0.083 UmL^–1) was mixed with the opportune volume of the inhibitor solution to obtain a final inhibitor concentration in cuvette between 90 and 1800 nM. With this solution, the blank was made. […]. The absorbance variations were measured at 412 nm at 25 °C between 0.5 and 1.5 min.
(§4) To determine the inhibition constants (Ki) and the inhibition mechanisms, the rates of hydrolysis at three different concentrations of substrate in the presence of five different concentrations of inhibitor were measured.

The target in test [1] is T3, Electrophorus electricus AChE (EeAChE) (Electrophorus electricus, UniProt O42275).
T3 construct: purchased Sigma-Aldrich (Milan, Italy)
The test is described as follows: Percent inhibition of EeAChE, Ellman's spectrophotometric method. In kind it is biochemical. To be noted: for inhibition at 90 µM: read-out: % inhibition vs EeAChE ± SD (90 uM), 90 uM; for inhibition at 900 µM: read-out: % inhibition vs EeAChE ± SD (900 uM), 900 uM; for inhibition at 0.9 µM: read-out: % inhibition vs EeAChE ± SD, [I] 900 nM. How it is done:
All other chemical and biological reagents and solvents used were of the highest analytical, commercially available grade. The water, utilized for the preparation of the phosphate buffer and of the compound solutions, was distilled and filtered on nylon membrane filters with a 0.2 μm pore size with the Millipore Filtration apparatus before each use. Micropipettes Labmate (BRAND Dig. 10–100 μL; Dig. 100–1000 μL; Dig. 0.1–2 μL) and Transferpette (HIGH TECH LAB LM200: 20–200 μL; LM5000: 1000–5000 μL) were used to collect the samples. The assays were carried out by a double beam UV–vis Lambda 40 Perkin Elmer spectrophotometer using optical polystyrene cuvettes (10 × 10 × 45 mm, 340–800 nm optical transparency); each measure was repeated at least in triplicate. […] The spectrophotometric method of Ellman[25] with minor modifications was used to evaluate the inhibition of ChEs. […] EeAChE and eqBChE were periodically tested to evaluate the effective enzymatic activity.
For all the synthesized compounds, the percentages of inhibition toward AChE of Electrophorus electricus (EeAChE) and equine BChE (eqBChE) were evaluated.
Three milliliters of a solution in 0.1 M phosphate buffer (pH = 7.4) containing DTNB (0.25 mM) and EeAChE (0.083 UmL^–1) or eqBChE (0.083 UmL^–1) was placed in a polystyrene cuvette of 1.0 cm path length; 1 μL of a […] With this solution, the blank was made. […] Each experiment was repeated at least in triplicate.
(In general: Ellman's reagent forms a yellow product with free thiols.)

The target of test [2] is T3, Electrophorus electricus AChE (EeAChE). The test is described as follows: Inhibition constant and mechanism vs EeAChE, Dixon's method. It counts as biochemical. The conditions noted are these: for inhibition mechanism on EeAChE: Dixon's plot, best fitting model; for α, EeAChE: mixed inhibition, α > 1 free enzyme, α < 1 enzyme–substrate complex; for Ki: three substrate and five inhibitor concentrations, read-out: Ki ± SD, EeAChE. How it is done: as §1, §2, §3, §4

Where [3] appears, read: read-out: % inhibition vs EeAChE ± SD (9 uM), 9 uM, supplement csv.
Setting [4] is: 0.0833 U/mL enzyme, 100 μM acetylthiocholine.
Setting [5] is: read-out: % inhibition vs EeAChE ± SD, [I] 9 μM, 0.0833 U/mL enzyme, 100 μM acetylthiocholine.

Broadly, the inhibition is the relative decrease from the control value, in per cent. As usually defined, the Ki is the equilibrium dissociation constant of an inhibitor or competing ligand from its target.

T2 sequence (P81908 whole entry): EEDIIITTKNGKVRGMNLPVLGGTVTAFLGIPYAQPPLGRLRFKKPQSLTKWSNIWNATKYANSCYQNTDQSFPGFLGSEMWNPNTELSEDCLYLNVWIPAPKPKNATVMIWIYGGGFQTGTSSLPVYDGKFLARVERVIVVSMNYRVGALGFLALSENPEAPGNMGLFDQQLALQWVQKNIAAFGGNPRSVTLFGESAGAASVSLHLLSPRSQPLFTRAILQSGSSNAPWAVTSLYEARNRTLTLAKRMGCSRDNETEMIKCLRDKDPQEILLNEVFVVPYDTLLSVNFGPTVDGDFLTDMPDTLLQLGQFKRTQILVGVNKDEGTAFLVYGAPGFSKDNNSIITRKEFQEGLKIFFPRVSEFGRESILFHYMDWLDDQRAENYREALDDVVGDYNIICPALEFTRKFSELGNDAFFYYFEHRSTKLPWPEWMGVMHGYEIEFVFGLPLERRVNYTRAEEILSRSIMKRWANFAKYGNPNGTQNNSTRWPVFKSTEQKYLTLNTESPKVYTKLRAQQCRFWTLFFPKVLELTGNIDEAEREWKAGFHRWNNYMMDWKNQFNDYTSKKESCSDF
T3 sequence (O42275 24-633): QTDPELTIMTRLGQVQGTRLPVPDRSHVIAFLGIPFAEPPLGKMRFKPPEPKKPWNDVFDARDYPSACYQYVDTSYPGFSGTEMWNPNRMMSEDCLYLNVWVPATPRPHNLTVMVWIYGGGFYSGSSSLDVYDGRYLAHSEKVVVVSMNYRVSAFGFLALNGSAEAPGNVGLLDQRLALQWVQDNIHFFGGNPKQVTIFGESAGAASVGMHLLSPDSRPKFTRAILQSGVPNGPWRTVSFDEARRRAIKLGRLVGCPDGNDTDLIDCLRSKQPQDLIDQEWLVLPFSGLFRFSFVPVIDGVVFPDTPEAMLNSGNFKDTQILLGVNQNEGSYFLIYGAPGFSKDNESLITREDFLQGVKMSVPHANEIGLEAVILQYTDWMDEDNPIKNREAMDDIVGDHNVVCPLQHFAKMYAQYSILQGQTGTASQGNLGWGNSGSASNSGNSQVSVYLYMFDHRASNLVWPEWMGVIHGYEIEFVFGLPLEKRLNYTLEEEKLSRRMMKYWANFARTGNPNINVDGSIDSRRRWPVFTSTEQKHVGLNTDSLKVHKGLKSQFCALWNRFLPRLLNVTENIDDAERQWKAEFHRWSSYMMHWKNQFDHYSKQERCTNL
T1 sequence (P05067 672-713 limits assumed): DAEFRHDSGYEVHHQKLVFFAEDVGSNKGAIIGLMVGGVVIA

On Aβ42 peptide, `c1ccc(CNCCCCCCNc2ccccn2)cc1` [Compound 25, N^1-Benzyl-N^6-(pyridin-2-yl)hexane-1,6-diamine] registered an inhibition at 100 µM of 16.8%. On equine BChE (eqBChE), the “inhibition mechanism on eqBChE” value is “mixed”; the “α, eqBChE” value came out at 2.2; the Ki worked out at 2370 ± 304 nM. The inhibition at 9 µM in test [1] (setting [3]) worked out at 73.3 ± 0.1%. For the same compound, in test [1] (supplement csv), the inhibition at 90 µM was 71.6 ± 2.1% and the inhibition at 900 µM is 23.1 ± 5.7%. The inhibition at 0.9 µM in test [1] (setting [4]) worked out at 23.1 ± 5.7%. For the same compound, the inhibition at 9 µM in test [1] (setting [5]) was 73%. In addition, in test [2], the “inhibition mechanism on EeAChE” value was “mixed”; the “α, EeAChE” value was found to be 0.8; the Ki is 995 ± 374 nM.

The compound `COc1ccccc1CNCCCCCCNc1ccccn1` [Compound 28, N^1-(2-Methoxybenzyl)-N^6-(pyridin-2-yl)hexane-1,6-diamine] registered an inhibition at 100 µM on Aβ42 peptide of 22.3%. Besides, at equine BChE (eqBChE), the “inhibition mechanism on eqBChE” value is recorded as “mixed”; the “α, eqBChE” value is on record as 0.8; the Ki was 3430 ± 701 nM. Moreover, the inhibition at 9 µM in test [1] (setting [3]) turned out to be 58.6 ± 1.1%. In test [1] (supplement csv), the inhibition at 90 µM is 74.3 ± 1.4% and the inhibition at 900 µM turned out to be 9 ± 1.6%. Besides, in test [1] (setting [4]), the inhibition at 0.9 µM worked out at 9 ± 1.6%. Also, the inhibition at 9 µM in test [1] (setting [5]) was roughly 60%. In addition, in test [2], the “inhibition mechanism on EeAChE” value was “mixed”; the “α, EeAChE” value turned out to be 1.2; the Ki was 1320 ± 622 nM.
